This note sets out measurements from ChEMBL document CHEMBL5154646, “Structure-guided optimization of 1H-imidazole-2-carboxylic acid derivatives affording potent VIM-Type metallo-β-lactamase inhibitors” (Eur J Med Chem, 2022).

The nature of data set [1]: Inhibition of bacterial VIM-2 (27 to 266 residues) expressed in Escherichia coli Transetta (DE3) using FC-5 as substrate preincubated with enzyme for 10 mins followed by substrate addition in presence of 1 uM Zn2+ by fluorescence based analysis. Also on record: species or system Bacteria.
For data set [2], the system named is Escherichia coli. Kind of data set: Synergistic antibacterial activity against Escherichia coli C1541 expressing VIM-2 assessed as fractional inhibitory concentration index incubated for 18 to 20 hrs in presence of meropenem and 1 uM of zinc sulfate by checkerboard microdilution assay. Type of data set: functional. Particulars: time 18-20 hrs.
A short description of data set [3]: Inhibition of bacterial VIM-2 (27 to 266 residues) expressed in Escherichia coli Transetta (DE3) using FC-5 as substrate preincubated with enzyme for 10 mins followed by substrate addition in presence of 100 uM Zn2+ by fluorescence based analysis. The arrangement: species or system Bacteria.
The subject of data set [4] is Escherichia coli. Kind of data set: Potentiation of meropenem-induced antibacterial activity against Escherichia coli C1541 expressing VIM-2 assessed as fold reduction in meropenem MIC at 10 ug/ml incubated for 18 to 20 hrs by CLSI based broth microtiter dilution method. Type of data set: functional. Particulars: dose 10 µg/ml; time 18-20 hrs.
Data set [5] deals with Pseudomonas aeruginosa. Put plainly: Synergistic antibacterial activity against Pseudomonas aeruginosa W35 expressing VIM-2 assessed as fractional inhibitory concentration index incubated for 18 to 20 hrs in presence of meropenem by checkerboard microdilution assay. Type of data set: functional. The settings on record: time 18-20 hrs.
The test system of data set [6] is Escherichia coli. Put plainly: Synergistic antibacterial activity against Escherichia coli C1541 expressing VIM-2 assessed as fractional inhibitory concentration index incubated for 18 to 20 hrs in presence of meropenem and 100 uM of zinc sulfate by checkerboard microdilution assay. It counts as functional. The settings on record: time 18-20 hrs.
Data set [7] concerns Escherichia coli. Put plainly: Potentiation of meropenem-induced antibacterial activity against Escherichia coli C1580 expressing VIM-2 assessed as fold reduction in meropenem MIC at 10 ug/ml incubated for 18 to 20 hrs by CLSI based broth microtiter dilution method. Type of data set: functional. The settings on record: dose 10 µg/ml; time 18-20 hrs.
For data set [8], the system named is Pseudomonas aeruginosa. Put plainly: Potentiation of meropenem-induced antibacterial activity against Pseudomonas aeruginosa 5621 expressing VIM-2 assessed as fold reduction in meropenem MIC at 100 ug/ml incubated for 18 to 20 hrs by CLSI based broth microtiter dilution method. It counts as functional. The settings on record: dose 100 µg/ml; time 18-20 hrs.
Data set [9] concerns Escherichia coli. Kind of data set: Potentiation of meropenem-induced antibacterial activity against Escherichia coli C1542 expressing VIM-2 assessed as meropenem MIC at 10 ug/ml incubated for 18 to 20 hrs by CLSI based broth microtiter dilution method (reference value: 16 ug/ml). It counts as functional. The settings on record: dose 10 µg/ml, time 18-20 hrs.
For data set [10], the system named is Escherichia coli. Put plainly: Potentiation of meropenem-induced antibacterial activity against Escherichia coli C1541 expressing IMP-1 assessed as meropenem MIC at 10 ug/ml incubated for 18 to 20 hrs by broth microtiter dilution method (reference value: 32 ug/ml). Type of data set: functional. The settings on record: dose 10 µg/ml, time 18-20 hrs.
Data set [11] has as its system Pseudomonas aeruginosa. Put plainly: Potentiation of meropenem-induced antibacterial activity against Pseudomonas aeruginosa W35 expressing VIM-2 assessed as fold reduction in meropenem MIC at 100 ug/ml incubated for 18 to 20 hrs by CLSI based broth microtiter dilution method. It counts as functional. Particulars: dose 100 µg/ml; time 18-20 hrs.
Data set [12] deals with Escherichia coli. Kind of data set: Potentiation of meropenem-induced antibacterial activity against Escherichia coli C1541 expressing VIM-2 assessed as meropenem MIC at 10 ug/ml incubated for 18 to 20 hrs by CLSI based broth microtiter dilution method (reference value: 16 ug/ml). Type of data set: functional. The settings on record: dose 10 µg/ml, time 18-20 hrs.
Data set [13] can be described thus: Inhibition of bacterial VIM-2 (27 to 266 residues) expressed in Escherichia coli Transetta (DE3) using FC-5 as substrate preincubated with enzyme for 10 mins followed by substrate addition by fluorescence based analysis. Also on record: species or system Bacteria.
Data set [14] has as its system Escherichia coli. Kind of data set: Potentiation of meropenem-induced antibacterial activity against Escherichia coli C1542 expressing VIM-2 assessed as fold reduction in meropenem MIC at 10 ug/ml incubated for 18 to 20 hrs by CLSI based broth microtiter dilution method. The settings on record: dose 10 µg/ml; time 18-20 hrs. Type of data set: functional.
The subject of data set [15] is Escherichia coli. Kind of data set: Potentiation of meropenem-induced antibacterial activity against Escherichia coli C1580 expressing VIM-2 assessed as meropenem MIC at 10 ug/ml incubated for 18 to 20 hrs by CLSI based broth microtiter dilution method (reference value: 32 ug/ml). The settings on record: dose 10 µg/ml, time 18-20 hrs. Type of data set: functional.

Data set [16] in a line: Inhibition of bacterial IMP-1 (1 to 246 residues) expressed in Escherichia coli Transetta (DE3) using FC-5 as substrate preincubated with enzyme for 10 mins followed by substrate addition by fluorescence based analysis. Also on record: species or system Bacteria.
The nature of data set [17]: Inhibition of bacterial recombinant full length N-terminal-TEV-His6-tagged VIM-5 expressed in Escherichia coli Transetta using FC-5 as substrate preincubated with enzyme for 10 mins followed by substrate addition by fluorescence based analysis. The arrangement: species or system Bacteria.
A short description of data set [18]: Solubility of the compound in water. It counts as physicochemical.
Data set [19] relates to Pseudomonas aeruginosa. Kind of data set: Potentiation of meropenem-induced antibacterial activity against Pseudomonas aeruginosa 5621 expressing VIM-2 assessed as meropenem MIC at 100 ug/ml incubated for 18 to 20 hrs in presence of meropenem by CLSI based broth microtiter dilution method (reference value: 64 ug/ml). It counts as functional. Particulars: dose 100 µg/ml, time 18-20 hrs.

Data set [20] concerns Escherichia coli. Put plainly: Synergistic antibacterial activity against Escherichia coli C1541 expressing VIM-2 assessed as fractional inhibitory concentration index incubated for 18 to 20 hrs in presence of meropenem by checkerboard microdilution assay. It counts as functional. The settings on record: time 18-20 hrs.
Data set [21] relates to Pseudomonas aeruginosa. Kind of data set: Potentiation of meropenem-induced antibacterial activity against Pseudomonas aeruginosa W35 expressing VIM-2 assessed as meropenem MIC at 100 ug/ml incubated for 18 to 20 hrs in presence of meropenem by CLSI based broth microtiter dilution method (reference value: 64 ug/ml). The settings on record: dose 100 µg/ml, time 18-20 hrs. It counts as functional.

Data set [22] is described as follows: Inhibition of bacterial NDM-1 (1 to 270 residues) expressed in Escherichia coli Transetta (DE3) using FC-5 as substrate preincubated with enzyme for 10 mins followed by substrate addition by fluorescence based analysis. The arrangement: species or system Bacteria.
Data set [23] has as its system Escherichia coli. Put plainly: Potentiation of meropenem-induced antibacterial activity against Escherichia coli C1541 expressing IMP-1 assessed as fold reduction in meropenem MIC at 10 ug/ml incubated for 18 to 20 hrs by CLSI based broth microtiter dilution method. It counts as functional. Particulars: dose 10 µg/ml; time 18-20 hrs.
Data set [24] can be described thus: Inhibition of bacterial recombinant full length C-terminal-TEV-His6-tagged VIM-1 expressed in Escherichia coli Transetta using FC-5 as substrate preincubated with enzyme for 10 mins followed by substrate addition by fluorescence based analysis. The arrangement: species or system Bacteria.
For data set [25], the system named is Escherichia coli. Kind of data set: Potentiation of meropenem-induced antibacterial activity against Escherichia coli C1541 expressing IMP-1 assessed as fold reduction in meropenem MIC at 100 ug/ml incubated for 18 to 20 hrs by CLSI based broth microtiter dilution method. It counts as functional. The settings on record: dose 100 µg/ml; time 18-20 hrs.

Structures are written as SMILES.

Consider `Nc1nc2ccc(Cn3ccnc3C(=O)O)cc2s1`, for which the IC50 in data set [1] was 14 nM; in data set [3], 76 nM; in [13], 19 nM; in data set [16] it was 14400 nM; in data set [17] it was 380 nM; in data set [22] it was 178000 nM. Also, the half-maximal inhibitory concentration (IC50) in data set [24] worked out at 13600 nM. Besides, the “fractional inhibitory concentration index (FICI)” value in data set [2] was 0.02; in data set [5] it was 0.125; in data set [6], 0.03; in data set [20], 0.02. In addition, the “fold change (FC)” value in data set [4] is >64; in data set [7], >128; in data set [8], 1; in data set [11], 4; in data set [14] it was >64; in data set [23] it was 1. The minimal inhibitory concentration (MIC) in data set [9] was < 0.25 µg/mL; in [10], 32 µg/mL; in data set [12], < 0.25 µg/mL; in data set [15], < 0.25 µg/mL; in data set [19], 64 µg/mL; in data set [21], 16 µg/mL. The solubility in data set [18] is < 2500 µg/mL.

Turning to `O=C(O)c1nccn1Cc1cc(Br)cc(Br)c1`, the concentration for half-maximal inhibition (IC50) in [1] is 48 nM; in data set [3], 110 nM; in [13], 14 nM; in [16], 85 nM; in data set [17] it was 53 nM; in data set [22], 98900 nM. In data set [24], the IC50 is 1370 nM. For the same molecule, the “fractional inhibitory concentration index (FICI)” value came to 0.06 in [2], 0.06 in data set [6] and 0.05 in data set [20]. Besides, the “fold change (FC)” value in data set [4] worked out at 32; in data set [7], 8; in data set [8], 2; in [25], 8; in data set [11] it was 4; in [14], 16. Besides, the “fold change (FC)” value in data set [23] was found to be 2. The minimum inhibitory concentration (MIC) in data set [9] came out at 1 µg/mL; in data set [10] it was 16 µg/mL; in [12] it was 0.5 µg/mL; in data set [15] it was 4 µg/mL; in [19], 32 µg/mL; in data set [21], 16 µg/mL.
